# Where “and” joins values, the source holds several entries; their conditions need not be identical. Equal values may be shown once. Read-outs that look alike come from different tables or passages of the source.
# Assay: Pharmacokinetics in Sprague Dawley rats (plasma and brain concentrations, PK parameters)
# Format: in vivo
# Settings: for Concentration Rat 4 / Concentration Rat 5 / Concentration Rat 6: po 10 mg/kg
# Protocol: Pharmacokinetics for I-127, I-172 and I-210 were determined in Sprague Dawley rats or CD-1 mice by dosing intravenous (IV), subcutaneous (SC) or per oral (PO) using facility SOPs and sampling plasma at required time points. Species, formulation, route of administration and time points samples are listed below for each compound.
# Compounds were extracted from plasma, injected on reverse phase HPLC, eluted with a gradient from 5% to 95% acetonitrile in water and quantified by mass spectrometry with internal standard. Data are expressed in ng compound per mL of plasma.
# [1] = Rat (Sprague Dawley) po 10 mg/kg, Mean
# [2] = Rat (Sprague Dawley) po 10 mg/kg, individual Rat 4-6, 10 mg/kg
# [3] = Sprague Dawley rat, iv 3 mg/kg, Rat 1
# [4] = Sprague Dawley rat, iv 3 mg/kg, Rat 2
# [5] = Sprague Dawley rat, iv 3 mg/kg, Rat 3
# [6] = Sprague Dawley rat, iv 3 mg/kg, mean of 3 rats
# [7] = Sprague Dawley rat, plasma, 0 h
# [8] = Sprague Dawley rat, plasma, 24 h
smiles,measurement,setting,value
"O=C1CCC(N2C(=O)c3cccc(NCCOCCOCCNCc4ccc(-n5cc(NC(=O)c6coc(-c7ccnc(NCC8CC8)c7)n6)c(C(F)F)n5)cc4)c3C2=O)C(=O)N1 (stereo not drawn) [I-210, 2-[2-(Cyclopropylmethylamino)-4-pyridyl]-N-[3-(difluoromethyl)-1-[4-[[2-[2-[2-[[2-(2,6-dioxo-3-piperidyl)-1,3-dioxoisoindolin-4-yl]amino]ethoxy]ethoxy]ethylamino]methyl]phenyl]pyrazol-4-yl]oxazole-4-carboxamide]",brain Detected Conc.,"Rat (Sprague Dawley) iv 3 mg/kg (IVB), brain homogenate 1:2 in PBS, 0.083 h, Group 1, Group 2, 3 mg/kg",11.8 ng/mL
same,brain Detected Conc.,"Rat (Sprague Dawley) iv 3 mg/kg (IVB), brain homogenate 1:2 in PBS, 0.25 h, Group 1, Group 2, 3 mg/kg",12.9 ng/mL
same,brain Detected Conc.,"Rat (Sprague Dawley) iv 3 mg/kg (IVB), brain homogenate 1:2 in PBS, 1 h, Group 1, Group 2, 3 mg/kg",17.5 ng/mL
same,brain Detected Conc.,"Rat (Sprague Dawley) iv 3 mg/kg (IVB), brain homogenate 1:2 in PBS, 4 h, Group 1, Group 2, 3 mg/kg",12.4 ng/mL
same,brain Actual Conc.,"Rat (Sprague Dawley) iv 3 mg/kg (IVB), brain, 0.083 h, Group 1, Group 2, detected value multiplied by 3, 3 mg/kg",35.4 ng/g
same,brain Actual Conc.,"Rat (Sprague Dawley) iv 3 mg/kg (IVB), brain, 0.25 h, Group 1, Group 2, detected value multiplied by 3, 3 mg/kg",38.7 ng/g
same,brain Actual Conc.,"Rat (Sprague Dawley) iv 3 mg/kg (IVB), brain, 1 h, Group 1, Group 2, detected value multiplied by 3, 3 mg/kg",52.5 ng/g
same,brain Actual Conc.,"Rat (Sprague Dawley) iv 3 mg/kg (IVB), brain, 4 h, Group 1, Group 2, detected value multiplied by 3, 3 mg/kg",37.2 ng/g
same,AUC_%Extrap_obs,[1],42.3%
same,AUClast/D,[1],1.52 kg·ng·h/mL/mg
same,F,[1],0.385%
same,AUC_%Extrap_obs,[2],33.5% and 48.7% and 44.8%
same,AUClast,[2],17.7 ng·h/mL and 21.1 ng·h/mL and 6.66 ng·h/mL
same,Cmax,[2],3.50 ng/mL and 4.02 ng/mL and 1.20 ng/mL
same,F,[2],0.450% and 0.536% and 0.169%
same,MRTInf_obs,[2],10.2 h and 9.35 h
same,T1/2,[2],5.65 h and 5.28 h
same,AUC_%Extrap_obs Rat 1,[3],0.140%
same,AUClast/D Rat 1,[3],414 kg·ng·h/mL/mg
same,Cl_obs Rat 1,[3],40.2 mL/min/kg
same,Vss_obs Rat 1,[3],7.85 L/kg
same,AUC_%Extrap_obs Rat 2,[4],0.183%
same,AUClast/D Rat 2,[4],403 kg·ng·h/mL/mg
same,Cl_obs Rat 2,[4],41.2 mL/min/kg
same,Vss_obs Rat 2,[4],7.79 L/kg
same,AUC_%Extrap_obs Rat 3,[5],0.185%
same,AUClast/D Rat 3,[5],364 kg·ng·h/mL/mg
same,Cl_obs Rat 3,[5],45.7 mL/min/kg
same,Vss_obs Rat 3,[5],8.00 L/kg
same,AUC_%Extrap_obs Mean,[6],0.169%
same,AUClast/D Mean,[6],394 kg·ng·h/mL/mg
same,Cl obs Mean,[6],42 mL/min/kg
same,Vss_obs Mean,[6],7.88 L/kg
same,Concentration Rat 1,"Sprague Dawley rat, iv 3 mg/kg, plasma, 0 h, Rat 1",BLOQ
same,Concentration Rat 2,"Sprague Dawley rat, iv 3 mg/kg, plasma, 0 h, Rat 2",BLOQ
same,Concentration Rat 3,"Sprague Dawley rat, iv 3 mg/kg, plasma, 0 h, Rat 3",BLOQ
same,Concentration Rat 4,[7],BLOQ
same,Concentration Rat 5,[7],BLOQ
same,Concentration Rat 6,[7],BLOQ
same,Concentration Rat 4,[8],BLOQ
same,Concentration Rat 5,[8],BLOQ
same,Concentration Rat 6,[8],BLOQ
same,concentration at 0.083 h,"Sprague Dawley, rat, brain homogenate, iv, 3 mg/kg, Rat (Sprague Dawley) iv 3 mg/kg (IVB), brain homogenate 1:2 in PBS, 0.083 h, Group 1, Group 2, read-out: brain Detected Conc.",17.2 ng/mL
same,concentration at 0.25 h,"Sprague Dawley, rat, brain homogenate, iv, 3 mg/kg, Rat (Sprague Dawley) iv 3 mg/kg (IVB), brain homogenate 1:2 in PBS, 0.25 h, Group 1, Group 2, read-out: brain Detected Conc.",13.2 ng/mL
same,concentration at 1 h,"Sprague Dawley, rat, brain homogenate, iv, 3 mg/kg, Rat (Sprague Dawley) iv 3 mg/kg (IVB), brain homogenate 1:2 in PBS, 1 h, Group 1, Group 2, read-out: brain Detected Conc.",13.3 ng/mL
same,concentration at 4 h,"Sprague Dawley, rat, brain homogenate, iv, 3 mg/kg, Rat (Sprague Dawley) iv 3 mg/kg (IVB), brain homogenate 1:2 in PBS, 4 h, Group 1, Group 2, read-out: brain Detected Conc.",14.2 ng/mL
same,concentration at 0.083 h,"Sprague Dawley, rat, brain, iv, 3 mg/kg, Rat (Sprague Dawley) iv 3 mg/kg (IVB), brain, 0.083 h, Group 1, Group 2, detected value multiplied by 3, read-out: brain Actual Conc.",51.6 ng/g
same,concentration at 0.083 h,"Sprague Dawley, rat, brain, iv, 3 mg/kg, Rat (Sprague Dawley) iv 3 mg/kg (IVB), brain, 0.083 h, Mean, read-out: brain Actual Conc.",43.5 ng/g
same,concentration at 0.25 h,"Sprague Dawley, rat, brain, iv, 3 mg/kg, Rat (Sprague Dawley) iv 3 mg/kg (IVB), brain, 0.25 h, Group 1, Group 2, detected value multiplied by 3, read-out: brain Actual Conc.",39.6 ng/g
same,concentration at 0.25 h,"Sprague Dawley, rat, brain, iv, 3 mg/kg, Rat (Sprague Dawley) iv 3 mg/kg (IVB), brain, 0.25 h, Mean, read-out: brain Actual Conc.",39.2 ng/g
same,concentration at 1 h,"Sprague Dawley, rat, brain, iv, 3 mg/kg, Rat (Sprague Dawley) iv 3 mg/kg (IVB), brain, 1 h, Group 1, Group 2, detected value multiplied by 3, read-out: brain Actual Conc.",39.9 ng/g
same,concentration at 1 h,"Sprague Dawley, rat, brain, iv, 3 mg/kg, Rat (Sprague Dawley) iv 3 mg/kg (IVB), brain, 1 h, Mean, read-out: brain Actual Conc.",46.2 ng/g
same,AUC(0-inf),"Sprague Dawley, rat, plasma, iv, 3 mg/kg, Sprague Dawley rat, iv 3 mg/kg, Rat 1, read-out: AUCInf Rat 1",1240 ng·h/mL
same,AUC(0-t),"Sprague Dawley, rat, plasma, iv, 3 mg/kg, Sprague Dawley rat, iv 3 mg/kg, Rat 1, read-out: AUClast Rat 1",1240 ng·h/mL
same,C0,"Sprague Dawley, rat, plasma, iv, 3 mg/kg, Sprague Dawley rat, iv 3 mg/kg, Rat 1, read-out: C0 Rat 1",873 ng/mL
same,half-life,"Sprague Dawley, rat, plasma, iv, 3 mg/kg, Sprague Dawley rat, iv 3 mg/kg, Rat 1, read-out: T1/2 Rat 1 (converted)",2.66 h
same,AUC(0-inf),"Sprague Dawley, rat, plasma, iv, 3 mg/kg, Sprague Dawley rat, iv 3 mg/kg, Rat 2, read-out: AUCInf Rat 2",1210 ng·h/mL
same,AUC(0-t),"Sprague Dawley, rat, plasma, iv, 3 mg/kg, Sprague Dawley rat, iv 3 mg/kg, Rat 2, read-out: AUClast Rat 2",1210 ng·h/mL
same,C0,"Sprague Dawley, rat, plasma, iv, 3 mg/kg, Sprague Dawley rat, iv 3 mg/kg, Rat 2, read-out: C0 Rat 2",814 ng/mL
same,half-life,"Sprague Dawley, rat, plasma, iv, 3 mg/kg, Sprague Dawley rat, iv 3 mg/kg, Rat 2, read-out: T1/2 Rat 2 (converted)",2.83 h
same,AUC(0-inf),"Sprague Dawley, rat, plasma, iv, 3 mg/kg, Sprague Dawley rat, iv 3 mg/kg, Rat 3, read-out: AUCInf Rat 3",1090 ng·h/mL
same,AUC(0-t),"Sprague Dawley, rat, plasma, iv, 3 mg/kg, Sprague Dawley rat, iv 3 mg/kg, Rat 3, read-out: AUClast Rat 3",1090 ng·h/mL
same,C0,"Sprague Dawley, rat, plasma, iv, 3 mg/kg, Sprague Dawley rat, iv 3 mg/kg, Rat 3, read-out: C0 Rat 3",855 ng/mL
same,half-life,"Sprague Dawley, rat, plasma, iv, 3 mg/kg, Sprague Dawley rat, iv 3 mg/kg, Rat 3, read-out: T1/2 Rat 3 (converted)",2.88 h
same,AUC(0-inf),"Sprague Dawley, rat, plasma, iv, 3 mg/kg, Sprague Dawley rat, iv 3 mg/kg, mean of 3 rats, read-out: AUCInf Mean",1180 ng·h/mL
same,AUC(0-t),"Sprague Dawley, rat, plasma, iv, 3 mg/kg, Sprague Dawley rat, iv 3 mg/kg, mean of 3 rats, read-out: AUClast Mean",1180 ng·h/mL
same,C0,"Sprague Dawley, rat, plasma, iv, 3 mg/kg, Sprague Dawley rat, iv 3 mg/kg, mean of 3 rats, read-out: C0 Mean",848 ng/mL
same,half-life,"Sprague Dawley, rat, plasma, iv, 3 mg/kg, Sprague Dawley rat, iv 3 mg/kg, mean of 3 rats, read-out: T1/2 Mean (converted)",2.79 h
same,AUC(0-inf),"Sprague Dawley, rat, plasma, po, 10 mg/kg, Rat (Sprague Dawley) po 10 mg/kg, Mean, read-out: AUCInf",26.6 ng·h/mL
